In series [1] the test system is human dermal fibroblasts. Briefly: Immunodetection of elastin in cultured human dermal fibroblasts. In kind it is cell-based. The procedure:
(§1) Biological effects of tannic acid in the presence of hyaluronic acid or ferulic acid were tested on dermal fibroblasts derived from punch biopsies of healthy skin. All fibroblasts were isolated by allowing migration out of skin explants and passaged by trypsinization. Fibroblasts were maintained in alpha-minimum essential medium supplemented with 20 mM HEPES, 1% antibiotics and antimycotics, 1% L-Glutamate and 2% fetal bovine serum (FBS). Cells were plated ([…] cells/dish) to reach confluency and were cultured for 7 days in the presence or absence of hyaluronic acid (0.1%), ferulic acid ([…]), tannic acid (2 μg/mL), or a combination thereof.
(§2) Cell cultures prepared according to Example 1 maintained in the presence or absence of tannic acid, hyaluronic acid, or ferulic acid were fixed in cold 100% methanol at […] for detection of elastin or in 4% paraformaldehyde at room temperature for detection of collagen I. The multiple parallel cultures were incubated with […] of polyclonal antibody to tropoelastin (Elastin Products, Owensville, Mich.), or polyclonal antibody to collagen type I (Chemicon, Temecula, Calif.). Cultures were incubated with the respective fluorescein-conjugated goat anti-rabbit, goat anti-mouse, or rabbit anti-goat secondary antibodies. Nuclei were counter stained with propidium iodide (Sigma, St. Louis, Mo.). All cultures were examined with a Nikon Eclipse E1000 microscope attached to a cooled CCD camera (QImaging, Retiga EX) and analyzed with the computer-generated morphometric analysis system, in which the Image-Pro Plus software (Media Cybernetics, Silver Springs, Md.) estimates the proportion of areas marked with green fluorescence, in relation to the entire (1 square mm) analyzed field.
Cultured human dermal fibroblasts were grown in the presence or absence of tannic acid at low concentration (2 μg/mL) and high concentration (20 μg/mL). Immunodetection of elastin was performed as described in Example 2.
(§3) Cultured human dermal fibroblasts were grown in the presence of or absence of vitamin D (10^−7 M), tannic acid ([…]), or a combination of vitamin D and tannic acid (2 μg/mL) (FIGS. 2A-2B and FIGS. 3A-3C). Immunodetection of elastin was performed as described above.
Cultured human dermal fibroblasts were grown in the presence of or absence hyaluronic acid (0.1%), tannic acid (2 μg/mL), or a combination of hyaluronic acid (0.1%) and tannic acid (2 μg/mL). Immunodetection of elastin was performed as described above.
Cultured human dermal fibroblasts were grown in the presence or absence of ferulic acid (5 μg/mL), tannic acid (2 μg/mL), or a combination of ferulic acid (5 μg/mL) and tannic acid (2 μg/mL). Immunodetection of elastin and collagen I was performed as described above. Results are shown in FIGS. 5A-5C, and FIGS. 6A-6B for elastin and FIGS. 7A-7C and FIG. 8 for collagen.
Cultured human dermal fibroblasts were grown in the presence or absence of ferulic acid (20 μM), tannic acid (2 μg/mL), or copper sulfate (2 μM). Fibroblasts were also grown in presence of a combination of ferulic acid (20 μM) and copper sulfate (2 μM), a combination of ferulic acid (20 μM) and tannic acid (2 μg/mL), and a combination of tannic acid (2 μg/mL) and copper sulfate (2 μM). Immunodetection of elastin was performed as described above.

Another series deals with fibroblast cultures. Description: Tropoelastin in fibroblast cultures measured using PCR. As to conditions: PCR after 18 hours; tannic acid added to cultures that contained vitamin D3. In kind it is cell-based, human. The protocol:
FIG. 2A depicts the amount of tropoelastin in fibroblast cultures measured using PCR after 18 hours.
as §3

The conditions of series [2]: cited from earlier work.
For series [3], the system named is human dermal fibroblasts. Description: Immunodetection of collagen I in cultured human dermal fibroblasts. The conditions noted are these: ferulic acid (5 μg/mL) alone. Type of series: cell-based. The protocol: as §1
as §2, with “All cultures were examined with a Nikon Eclipse E1000 microscope attached to a cooled CCD camera (QImaging, Retiga EX) and analyzed with the computer-generated morphometric analysis system, in which the Image-Pro Plus software (Media Cybernetics, Silver Springs, Md.) estimates the proportion of areas marked with green fluorescence, in relation to the entire (1 square mm) analyzed field.” left out

Setting [4] is: tannic acid (2 μg/mL) added to hyaluronic acid (0.1%).
Where [5] appears, read: tannic acid (2 μg/mL) added to vitamin D (10^−7 M).

Turning to vitamin D [reference compound], in the series with human dermal fibroblasts [1] (vitamin D (10^−7 M) alone), the elastin production result is “causes inhibition of elastin production”.
Take `O=C(OC[C@H]1O[C@@H](OC(=O)c2cc(O)c(O)c(OC(=O)c3cc(O)c(O)c(O)c3)c2)[C@H](OC(=O)c2cc(O)c(O)c(OC(=O)c3cc(O)c(O)c(O)c3)c2)[C@@H](OC(=O)c2cc(O)c(O)c(OC(=O)c3cc(O)c(O)c(O)c3)c2)[C@@H]1OC(=O)c1cc(O)c(O)c(OC(=O)c2cc(O)c(O)c(O)c2)c1)c1cc(O)c(O)c(OC(=O)c2cc(O)c(O)c(O)c2)c1` [tannic acid]: in the series on human dermal fibroblasts [1] (tannic acid (2 μg/mL) added to ferulic acid (5 μg/mL)), the production of elastin entry is listed as “improved production of elastin even in the presence of ferulic acid”. Further, the elastin fiber formation entry in the series with human dermal fibroblasts [1] (setting [4]) is “abolished the inhibitory effect of hyaluronic acid on elastin fiber formation”; in the series with human dermal fibroblasts [1] (setting [5]) it was “abolished the inhibitory effect of vitamin D on elastin fiber formation”. The “net deposition of elastin” value with human dermal fibroblasts [1] (setting [4]) and in the series on human dermal fibroblasts [1] (setting [5]) was “caused an improvement in net deposition of elastin” each time. Also, the elastin concentration result is recorded as “caused elastosis” with human dermal fibroblasts [1] (tannic acid at high concentration (20 μg/mL)) and “improved elastin concentration” in the series on human dermal fibroblasts [1] (tannic acid at low concentration (2 μg/mL), compared to high concentration). Further, the amount of tropoelastin result with fibroblast cultures is “increased the amount of tropoelastin”. In addition, in series [2], the pKa result is given as “about 6”.
For `O=S(=O)([O-])[O-].[Cu+2]` [copper sulfate, reference compound], the effect on elastin entry in the series with human dermal fibroblasts [1] (copper sulfate (2 μM)) is on record as “little effect on elastin”.
Take `COc1cc(/C=C/C(=O)O)ccc1O` [ferulic acid]: the concentrations of elastin result with human dermal fibroblasts [1] (ferulic acid (5 μg/mL) alone) is recorded as “negative effect on concentrations of elastin”. Also, the effect on elastin result with human dermal fibroblasts [1] (ferulic acid (20 μM)) was “leads to a reduction in elastin”. For the same compound, the concentrations of collagen entry with human dermal fibroblasts [3] is “minimal effect on concentrations of collagen”.
As for hyaluronic acid, in the series on human dermal fibroblasts [1] (hyaluronic acid (0.1%) alone), the elastin production entry is listed as “causes inhibition of elastin production”.

These data come from patent publication US20230073764A1, “COMPOSITION OF TANNIC ACID AND VITAMIN D AND METHODS OF USE” (Elastogenesis, LLC, priority 2021, published 2023).
